Assay results from ChEMBL document CHEMBL1201862, “PubChem BioAssay data set” (2004).
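1) Cells in 96-well plates. 2) Compound, 48 h, 5 concentrations. 3) Linear interpolation between surrounding doses. 4) Unreached endpoint = highest concentration. At the GI50, growth is halved.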 Activity calls are given as the source filed them. Cut-off read from the data, not from the text of the source: active = GI50 up to about 1.1 µM and inactive = higher.

Key:
Test in all cases: DTP human tumour cell line panel, 48 h
UACC-62 = test system: UACC-62
Malme-3M = test system: Malme-3M
NCI-H226 = test system: NCI-H226
SN12C = test system: SN12C
SW-620 = test system: SW-620
SK-MEL-28 = test system: SK-MEL-28
MCF7 = test system: MCF7
IGROV-1 = test system: IGROV-1
UACC-257 = test system: UACC-257
EKVX = test system: EKVX
SF-539 = test system: SF-539
OVCAR-5 = test system: OVCAR-5
TK-10 = test system: TK-10
U-251 = test system: U-251
HCT-116 = test system: HCT-116
COLO 205 = test system: COLO 205
SK-MEL-5 = test system: SK-MEL-5
MDA-N = test system: MDA-N
T47D = test system: T47D
NCI-H460 = test system: NCI-H460

Measured: GI50

Nc1ccccc1C(=O)NNC(=O)c1ccccc1N
inactive: UACC-62 > 100 µM | Malme-3M > 100 µM | NCI-H226 > 100 µM | SN12C > 100 µM | SW-620 > 100 µM | SK-MEL-28 > 100 µM | MCF7 > 100 µM | IGROV-1 > 100 µM | UACC-257 > 100 µM | EKVX > 100 µM | SF-539 > 100 µM | OVCAR-5 > 100 µM | TK-10 > 100 µM | U-251 > 100 µM | HCT-116 > 100 µM | COLO 205 > 100 µM | SK-MEL-5 > 100 µM | MDA-N > 100 µM | T47D > 100 µM

C=CCNS(=O)(=O)c1ncnc2[nH]cnc12
inactive: UACC-62 > 100 µM | Malme-3M > 100 µM | NCI-H226 > 100 µM | SN12C 55.6 µM | SW-620 > 100 µM | SK-MEL-28 > 100 µM | MCF7 > 100 µM | IGROV-1 > 100 µM | UACC-257 > 100 µM | EKVX > 100 µM | OVCAR-5 > 100 µM | TK-10 > 100 µM | U-251 > 100 µM | HCT-116 > 100 µM | COLO 205 > 100 µM | SK-MEL-5 > 100 µM | MDA-N 82.8 µM | T47D > 100 µM

Cc1ccc(S[C@@H](C)[C@@](O)(CF)CN(Cc2ccccc2)C(=O)C(F)(F)F)cc1
inactive: UACC-62 13.8 µM | Malme-3M 20.9 µM | SN12C 18.4 µM | SW-620 23.9 µM | SK-MEL-28 > 100 µM | MCF7 20.8 µM | IGROV-1 > 100 µM | UACC-257 20.9 µM | EKVX 21.8 µM | OVCAR-5 14.8 µM | NCI-H460 15.5 µM | TK-10 35.2 µM | U-251 19 µM | HCT-116 11.4 µM | MDA-N 22.8 µM | T47D 28.8 µM

C=C(C)C1CCC2=CC(CC3(C)OC3C3=CC(C(=O)OC)=C(C1)O3)OC2=O (stereo not given)
inactive: Malme-3M > 100 µM | NCI-H226 > 100 µM | SN12C > 100 µM | SW-620 > 100 µM | SK-MEL-28 > 100 µM | MCF7 > 100 µM | IGROV-1 > 100 µM | UACC-257 > 100 µM | EKVX > 100 µM | SF-539 73.3 µM | OVCAR-5 > 100 µM | NCI-H460 > 100 µM | TK-10 > 100 µM | U-251 > 100 µM | HCT-116 > 100 µM | SK-MEL-5 72.3 µM | MDA-N > 100 µM | T47D 32.9 µM

C=CCn1c(-c2ccc([N+](=O)[O-])cc2)csc1=N
inactive: UACC-62 37.7 µM | Malme-3M 76.9 µM | NCI-H226 41.6 µM | SN12C > 100 µM | SW-620 70 µM | SK-MEL-28 > 100 µM | MCF7 25.4 µM | IGROV-1 59 µM | UACC-257 13.1 µM | EKVX 16.4 µM | OVCAR-5 > 100 µM | NCI-H460 61.1 µM | TK-10 66.7 µM | U-251 54.1 µM | HCT-116 37.3 µM | COLO 205 > 100 µM | SK-MEL-5 14.8 µM | MDA-N 29.1 µM | T47D 26.2 µM

COc1ccc(C2CC(c3ccc4ccccc4c3O)=NN2C(C)=O)cc1OC (stereo not given)
inactive: UACC-62 75.9 µM | Malme-3M > 100 µM | NCI-H226 > 100 µM | SN12C > 100 µM | SW-620 > 100 µM | SK-MEL-28 > 100 µM | MCF7 > 100 µM | IGROV-1 > 100 µM | UACC-257 > 100 µM | SF-539 > 100 µM | OVCAR-5 > 100 µM | NCI-H460 > 100 µM | TK-10 > 100 µM | U-251 > 100 µM | HCT-116 > 100 µM | COLO 205 > 100 µM | SK-MEL-5 > 100 µM | MDA-N > 100 µM | T47D > 100 µM

CCCc1c(OC)c(=O)c2c(OC)cc(OC)c3c4c(OC)cc(OC)c5c(=O)c(OC)c(CCC)c(c1c23)c54
inactive: UACC-62 11.9 µM | NCI-H226 16.2 µM | SN12C 18.6 µM | SW-620 17.3 µM | SK-MEL-28 13.4 µM | MCF7 17.1 µM | IGROV-1 14.8 µM | UACC-257 20.7 µM | EKVX 11.8 µM | SF-539 15.1 µM | OVCAR-5 15.2 µM | NCI-H460 13.7 µM | TK-10 21 µM | U-251 16 µM | HCT-116 13.8 µM | COLO 205 8.47 µM | SK-MEL-5 10.7 µM | MDA-N 15.2 µM | T47D 4.07 µM

CN/C(=N\c1ccc(OC)c2ccccc12)SC
inactive: UACC-62 > 10 µM | Malme-3M > 10 µM | SN12C > 10 µM | SW-620 > 10 µM | SK-MEL-28 > 10 µM | MCF7 > 10 µM | IGROV-1 > 10 µM | UACC-257 > 10 µM | SF-539 > 10 µM | OVCAR-5 2.86 µM | TK-10 > 10 µM | U-251 > 10 µM | HCT-116 > 10 µM | COLO 205 > 10 µM | SK-MEL-5 > 10 µM | MDA-N > 10 µM | T47D > 10 µM

CC(=O)CC(O)(C(F)(F)Cl)C(F)(Cl)Cl (stereo not given)
inactive: UACC-62 > 10 µM | Malme-3M > 10 µM | NCI-H226 > 10 µM | SN12C > 10 µM | SW-620 > 10 µM | SK-MEL-28 > 10 µM | MCF7 > 10 µM | IGROV-1 > 10 µM | UACC-257 > 10 µM | EKVX > 10 µM | SF-539 > 10 µM | NCI-H460 > 10 µM | TK-10 > 10 µM | U-251 > 10 µM | HCT-116 > 10 µM | COLO 205 > 10 µM | SK-MEL-5 > 10 µM | MDA-N > 10 µM | T47D > 10 µM

Cc1cccc(N/C(=C(/C(Cl)=C(Cl)Cl)[N+](=O)[O-])n2nnc3ccccc32)c1
inactive: UACC-62 15.5 µM | Malme-3M 14.9 µM | NCI-H226 12.9 µM | SN12C 15.5 µM | SW-620 15.8 µM | SK-MEL-28 14.9 µM | MCF7 21.6 µM | UACC-257 22 µM | EKVX 18.6 µM | SF-539 15.8 µM | OVCAR-5 16.6 µM | NCI-H460 20.7 µM | U-251 14 µM | HCT-116 18.9 µM | COLO 205 17.1 µM | MDA-N 23.5 µM | T47D 22.1 µM

O=C/C=C/c1ccco1
inactive: UACC-62 > 100 µM | Malme-3M > 100 µM | NCI-H226 > 100 µM | SN12C > 100 µM | SW-620 > 100 µM | SK-MEL-28 > 100 µM | MCF7 > 100 µM | IGROV-1 > 100 µM | UACC-257 > 100 µM | EKVX > 100 µM | SF-539 94.8 µM | OVCAR-5 > 100 µM | TK-10 > 100 µM | U-251 96.8 µM | HCT-116 > 100 µM | COLO 205 > 100 µM | SK-MEL-5 > 100 µM | MDA-N > 100 µM | T47D > 100 µM

COC(=O)c1ccc(C)cc1CC1Cc2cc(C)ccc2C1=O (stereo not given)
inactive: UACC-62 > 100 µM | Malme-3M > 100 µM | NCI-H226 > 100 µM | SN12C > 100 µM | SW-620 > 100 µM | SK-MEL-28 > 100 µM | MCF7 > 100 µM | IGROV-1 > 100 µM | UACC-257 > 100 µM | EKVX > 100 µM | SF-539 > 100 µM | OVCAR-5 > 100 µM | NCI-H460 > 100 µM | TK-10 > 100 µM | U-251 > 100 µM | HCT-116 > 100 µM | COLO 205 > 100 µM | MDA-N > 100 µM | T47D > 100 µM

CCOC(=O)c1c(O)cc(=O)[nH]c1N1CCOCC1
inactive: UACC-62 > 100 µM | NCI-H226 > 100 µM | SN12C > 100 µM | SW-620 > 100 µM | SK-MEL-28 > 100 µM | MCF7 > 100 µM | IGROV-1 > 100 µM | UACC-257 > 100 µM | EKVX > 100 µM | SF-539 > 100 µM | OVCAR-5 > 100 µM | NCI-H460 > 100 µM | U-251 > 100 µM | HCT-116 > 100 µM | COLO 205 > 100 µM | SK-MEL-5 > 100 µM | MDA-N > 100 µM | T47D > 100 µM

N#CC(C#N)=C(N)/C(C#N)=C/c1ccc(O)c(O)c1
inactive: UACC-62 49 µM | Malme-3M > 100 µM | NCI-H226 46.3 µM | SW-620 50.2 µM | SK-MEL-28 > 100 µM | MCF7 75.2 µM | IGROV-1 > 55.1 µM | UACC-257 > 95.5 µM | EKVX > 70.3 µM | SF-539 > 100 µM | OVCAR-5 > 58.3 µM | NCI-H460 50.5 µM | TK-10 > 100 µM | U-251 > 89.5 µM | HCT-116 54 µM | COLO 205 > 65.2 µM | SK-MEL-5 78.9 µM | MDA-N > 100 µM | T47D 53.7 µM

Cc1ncc([N+](=O)[O-])n1CCNC(=O)Cn1ccnc1[N+](=O)[O-]
inactive: UACC-62 > 100 µM | Malme-3M > 100 µM | NCI-H226 > 100 µM | SN12C > 100 µM | SW-620 > 100 µM | SK-MEL-28 > 100 µM | MCF7 > 100 µM | IGROV-1 > 100 µM | UACC-257 > 100 µM | SF-539 > 100 µM | OVCAR-5 > 100 µM | NCI-H460 > 100 µM | TK-10 > 100 µM | U-251 > 100 µM | HCT-116 > 100 µM | COLO 205 > 100 µM | SK-MEL-5 > 100 µM | MDA-N > 100 µM | T47D > 100 µM
